Where two headings read alike, the source gives them in different places.
Legend:
Parameters in all cases: species or system AML cell lines (8); Primary HTS, single concentration about 10 uM, Cell Titer Glo viability; log10 luminescence, per cent inhibition relative to cycloheximide control
Settings in all cases: 72 h, relative to cycloheximide control, log10 luminescence, inhibitor
MV4-11 = test system: MV4-11
M07e = test system: M07e
CHRF288-11 = test system: CHRF288-11
MOLM-13 = test system: MOLM-13
U937 = test system: U937
ML-2 = test system: ML-2
CMK = test system: CMK
CMS = test system: CMS

## CCCCC(=O)N(Cc1ccc(-c2ccccc2-c2nnn[nH]2)cc1)[C@H](C(=O)O)C(C)C [SJ000286083-4]
MV4-11; MV4-11 %inh, 10 µM
  MV4-11 %inh: -5.399%
M07e; M07e %inh, 10 µM
  M07e %inh: -1.607%
CHRF288-11; CHRF288-11 %inh, 10 µM
  CHRF288-11 %inh: 3.369%
MOLM-13; MOLM-13 %inh, 10 µM
  MOLM-13 %inh: -2.877%
U937; U937 %inh, 10 µM
  U937 %inh: -0.1303%
ML-2; ML-2 %inh, 10 µM
  ML-2 %inh: -0.2697%
CMK; CMK %inh, 10 µM
  CMK %inh: -2.819%
CMS; CMS %inh, 10 µM
  CMS %inh: -1.191%

## Cc1cccc(Nc2ccncc2S(=O)(=O)NC(=O)NC(C)C)c1 [SJ000286085-4, TORSEMIDE]
MV4-11; MV4-11 %inh, 10 µM
  MV4-11 %inh: 3.27%
M07e; M07e %inh, 10 µM
  M07e %inh: 11.12%
CHRF288-11; CHRF288-11 %inh, 10 µM
  CHRF288-11 %inh: 121.5%
MOLM-13; MOLM-13 %inh, 10 µM
  MOLM-13 %inh: 0.9883%
U937; U937 %inh, 10 µM
  U937 %inh: 0.4443%
ML-2; ML-2 %inh, 10 µM
  ML-2 %inh: -0.2644%
CMK; CMK %inh, 10 µM
  CMK %inh: 4.671%
CMS; CMS %inh, 10 µM
  CMS %inh: -0.4672%

## Cc1cccc(Nc2ccncc2S(=O)(=O)NC(=O)NC(C)C)c1 [SJ000286085-5, TORSEMIDE]
MV4-11; MV4-11 %inh, 10 µM
  MV4-11 %inh: 0.9899%
M07e; M07e %inh, 10 µM
  M07e %inh: 1.697%
CHRF288-11; CHRF288-11 %inh, 10 µM
  CHRF288-11 %inh: 0.4254%
MOLM-13; MOLM-13 %inh, 10 µM
  MOLM-13 %inh: -1.664%
U937; U937 %inh, 10 µM
  U937 %inh: -1.512%
ML-2; ML-2 %inh, 10 µM
  ML-2 %inh: 1.771%
CMK; CMK %inh, 10 µM
  CMK %inh: -7.265%
CMS; CMS %inh, 10 µM
  CMS %inh: -2.109%

## C[C@]12CCC(=O)C=C1C=C[C@@H]1[C@@H]2CC[C@@]2(C)[C@H]1CC[C@@]21CCC(=O)O1 [SJ000286091-3, CANRENONE]
MV4-11
  MV4-11 %inh: 4.82%
M07e
  M07e %inh: 2.621%
CHRF288-11
  CHRF288-11 %inh: 2.724%
MOLM-13
  MOLM-13 %inh: 5.53%
U937
  U937 %inh: 3.254%
ML-2
  ML-2 %inh: 3.227%
CMK
  CMK %inh: 0.4745%
CMS
  CMS %inh: 0.603%

## CCOC(=O)[C@H](CCc1ccccc1)N[C@@H](C)C(=O)N1[C@H](C(=O)O)C[C@H]2CCCC[C@@H]21 [SJ000286095-3, TRANDOLAPRIL]
MV4-11
  MV4-11 %inh: 3.149%
M07e
  M07e %inh: 4.953%
CHRF288-11
  CHRF288-11 %inh: 2.18%
MOLM-13
  MOLM-13 %inh: 4.361%
U937
  U937 %inh: 1.075%
ML-2
  ML-2 %inh: -0.1668%
CMK
  CMK %inh: -2.955%
CMS
  CMS %inh: -0.04443%

## CN1CCN(C2=Nc3ccccc3Oc3ccc(Cl)cc32)CC1 [SJ000286106-7, LOXAPINE SUCCINATE]
MV4-11
  MV4-11 %inh: 2.165%
M07e
  M07e %inh: 4.618%
CHRF288-11
  CHRF288-11 %inh: 14.63%
MOLM-13
  MOLM-13 %inh: 7.459%
U937
  U937 %inh: 3.14%
ML-2
  ML-2 %inh: 1.422%
CMK
  CMK %inh: -0.3035%
CMS
  CMS %inh: 1.134%

## NS(=O)(=O)c1cc2c(cc1Cl)NC(C(Cl)Cl)NS2(=O)=O (centres unmarked) [SJ000286143-4, TRICHLORMETHIAZIDE]
MV4-11
  MV4-11 %inh: -3.026%
M07e
  M07e %inh: -1.321%
CHRF288-11
  CHRF288-11 %inh: 5.642%
MOLM-13
  MOLM-13 %inh: -1.049%
U937
  U937 %inh: -14.58%
ML-2
  ML-2 %inh: -0.7669%
CMK
  CMK %inh: 3.577%
CMS
  CMS %inh: 0.3933%

## CCCc1cc(=O)[nH]c(=S)[nH]1 [SJ000286145-4, PROPYLTHIOURACIL]
MV4-11
  MV4-11 %inh: 0.3408%
M07e
  M07e %inh: 2.631%
CHRF288-11
  CHRF288-11 %inh: 1.792%
MOLM-13
  MOLM-13 %inh: -0.9508%
U937
  U937 %inh: -0.4734%
ML-2
  ML-2 %inh: 1.023%
CMK
  CMK %inh: -4.099%
CMS
  CMS %inh: -1.815%

## C[C@]12CCC(=O)C=C1CC[C@@H]1[C@@H]2[C@@H](O)C[C@@]2(C)[C@H]1CC[C@]2(O)C(=O)COP(=O)(O)O [SJ000286156-3, HYDROCORTISONE SODIUM PHOSPHATE]
MV4-11
  MV4-11 %inh: -4.752%
M07e
  M07e %inh: 0.6039%
CHRF288-11
  CHRF288-11 %inh: 4.933%
MOLM-13
  MOLM-13 %inh: 15.41%
U937
  U937 %inh: 5.176%
ML-2
  ML-2 %inh: 0.191%
CMK
  CMK %inh: 0.9258%
CMS
  CMS %inh: -1.283%

## CCCCCCCCCCCCCCCCOP(=O)([O-])OCC[N+](C)(C)C [SJ000286181-3, MILTEFOSINE]
MV4-11
  MV4-11 %inh: -0.6681%
M07e
  M07e %inh: 2.383%
CHRF288-11
  CHRF288-11 %inh: 1.656%
MOLM-13
  MOLM-13 %inh: 1.005%
U937
  U937 %inh: -1.059%
ML-2
  ML-2 %inh: -0.1071%
CMK
  CMK %inh: -1.001%
CMS
  CMS %inh: -1.205%

Reference: PMC6522510 (Nature Communications, 2019)
